Among the data in US7879876B2, “Sulfonamide derivatives and use thereof for the modulation of metalloproteinases” (Merck Serono SA, priority 2005, dated 2011) are IC50 values, retold here.

pIC50: −log10 of the molar value.

In one test the target is T1, gelatinase A (MMP-2) (Homo sapiens, UniProt P08253).
T1 sequence (P08253 110-660): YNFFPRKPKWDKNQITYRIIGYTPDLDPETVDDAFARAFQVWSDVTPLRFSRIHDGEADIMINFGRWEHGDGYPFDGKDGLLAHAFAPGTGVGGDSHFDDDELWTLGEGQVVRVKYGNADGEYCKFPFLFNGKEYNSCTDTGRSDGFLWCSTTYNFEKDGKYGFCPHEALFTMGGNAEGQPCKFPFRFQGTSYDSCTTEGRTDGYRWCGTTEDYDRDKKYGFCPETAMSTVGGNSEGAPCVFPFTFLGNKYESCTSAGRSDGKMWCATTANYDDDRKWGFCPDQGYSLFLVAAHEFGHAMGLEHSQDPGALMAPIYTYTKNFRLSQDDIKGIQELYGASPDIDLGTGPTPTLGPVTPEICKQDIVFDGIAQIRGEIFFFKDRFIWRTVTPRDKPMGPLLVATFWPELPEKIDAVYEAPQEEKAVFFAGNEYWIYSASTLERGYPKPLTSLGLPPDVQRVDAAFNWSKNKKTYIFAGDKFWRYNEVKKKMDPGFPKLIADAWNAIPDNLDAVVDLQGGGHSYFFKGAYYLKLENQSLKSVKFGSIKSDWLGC
Kind of test: MMP-2 enzyme inhibition assay (coumarin-labelled peptide substrate). Type of test: biochemical. The following applies: read-out: IC50 MMP2. The method in brief:
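Recombinant human MMP-2, APMA-activated if necessary, run as for the MMP-9 protocol: McaPLGLDpaAR substrate (8 μM working dilution) in 100 mM Tris-HCl pH 7.6, 100 mM NaCl, 10 mM CaCl2, 0.05% Brij 35; ten 3-fold concentrations (100 μM–5.1 nM) in duplicate, 2 h at 37° C. Fluorescence ex 320/em 405 nm, unstopped; IC50 from four-parameter fit.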

A further test addresses human ADAM17 (TACE) (Homo sapiens, UniProt P78536). The test can be described thus: TACE enzyme inhibition assay. Type of test: biochemical. The method, then:
Compounds of the invention were tested to assess their activities as inhibitors of MMP-1, MMP-2, MMP-9, MMP-14, MMP-12 and TACE. MMP-9 Assay Protocol
Compounds of the invention can be tested for inhibitory activity against human ADAM17 in an assay using human Mca-(endo-1a-Dap(Dnp)-TNF-alpha(−5 to +6)amide as substrate (FEBS Letters, 2000, 275-279).
Stock solutions are prepared as followed: • Assay Buffer: 20 mM Hepes pH 7.5 (Fluka) containing 0.05% Brij 35 (Fluka) • Substrate: 6.1 mM human Mca-(endo-1a-Dap(Dnp)-TNF-alpha(−5 to +6)amide (Bachem) stock solution in 100% DMSO (stored at −20° C.); diluted to 5 μM in assay buffer. • Enzyme: Recombinant human ADAM17, appropriately diluted in assay buffer (1.5 μg/ml).
Test Compounds are prepared initially as 10 mM compound solution in 100% DMSO, diluted to 1 mM in 100% DMSO, then serially diluted 3-fold in 100% DMSO across a 96-well microtitre plate. Assay concentration range is typically between 100 μM to 0.01 nM. The assay is performed in a total volume of 100 μL per well in 96-well microtitre plates. Appropriate concentrations of test compounds dissolved in 10 μL of DMSO are added to the wells, followed by substrate solution (50 μL, 5 μM prepared by dilution of DMSO stock in assay buffer) and enzyme solution (40 μL). For each as say ten concentrations of test compound are examined in […]. Control wells lack either enzyme or test compound. The reactions are incubated at room temperature for 1.5 hours. The fluorescence at 405 nm is measured immediately with a fluorometer using 355 nm excitation, without stopping the reaction.
The effect of the test compound is determined from the dose response curve generated by the 10 duplicate concentrations of inhibitor. The IC50 (the concentration of compound required to give a 50% decrease in enzyme activity) is obtained by fitting data to the equation, Y=a+((b−a)/(1+(c/X)^d)). (Y=inhibition achieved for a particular dose; X=the dose in nM; a=minimum y or zero % inhibition; b=maximum y or 100% inhibition; c=is the IC50; d=is the slope). The result is rounded to one significant figure.

Chain of human ADAM17 (TACE) (P78536 215-824): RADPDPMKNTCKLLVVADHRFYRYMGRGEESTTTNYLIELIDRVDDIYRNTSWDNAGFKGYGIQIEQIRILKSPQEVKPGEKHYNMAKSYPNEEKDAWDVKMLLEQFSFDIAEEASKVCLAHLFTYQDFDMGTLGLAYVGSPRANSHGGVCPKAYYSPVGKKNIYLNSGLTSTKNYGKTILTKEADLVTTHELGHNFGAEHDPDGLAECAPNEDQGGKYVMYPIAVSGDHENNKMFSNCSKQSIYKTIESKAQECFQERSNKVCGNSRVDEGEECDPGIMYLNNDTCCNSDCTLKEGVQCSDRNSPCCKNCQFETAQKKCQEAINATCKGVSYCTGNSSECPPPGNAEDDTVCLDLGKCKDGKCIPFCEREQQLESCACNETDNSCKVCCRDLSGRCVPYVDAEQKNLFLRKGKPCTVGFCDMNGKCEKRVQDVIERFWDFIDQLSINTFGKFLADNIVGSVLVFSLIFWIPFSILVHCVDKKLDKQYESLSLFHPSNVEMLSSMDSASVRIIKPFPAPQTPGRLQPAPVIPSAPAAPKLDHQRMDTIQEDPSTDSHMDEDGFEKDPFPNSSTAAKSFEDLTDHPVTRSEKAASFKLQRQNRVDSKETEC

Consider `O=CN(O)C(CS(=O)(=O)N1CCc2cc(C(F)(F)F)ccc2C1)C1CCCC1` (stereo not drawn) [Example 25, N-(1-cyclopentyl-2-{[6-(trifluoromethyl)-3,4-dihydro-isoquinolin-2(1H)-yl]sulfonyl}ethyl)-N-hydroxyformamide], for which the pIC50 is 7.11 on gelatinase A (MMP-2) and 5.92 against human ADAM17 (TACE).

In the case of `CC(C)(C)CC(CS(=O)(=O)N1Cc2ccc(F)cc2C1)N(O)C=O` (stereo not drawn) [Example 26, N-(1-{[(5-fluoro-1,3-dihydro-2H-isoindol-2-yl)sulfonyl]methyl}-3,3-dimethylbutyl)-N-hydroxyformamide], the pIC50 was 7.22 at gelatinase A (MMP-2) and 5.96 at human ADAM17 (TACE).

Take `O=CN(O)[C@H](CS(=O)(=O)N1CCc2ccc(C(F)(F)F)cc2C1)[C@H]1CCCO1` [Example 27, N-hydroxy-N-((1S)-1-[(2R)-tetrahydrofuran-2-yl]-2-{[7-(trifluoromethyl)-3,4-dihydroisoquinolin-2(1H)-yl]sulfonyl}ethyl)formamide]: the pIC50 on gelatinase A (MMP-2) is 7.24; against human ADAM17 (TACE), 6.30.

As to `CC1(C)OC[C@H](C(CS(=O)(=O)N2CCc3ccc(C(F)(F)F)cc3C2)N(O)C=O)O1` (stereo partly drawn) [Example 28, N-(1-[(4S)-2,2-dimethyl-1,3-dioxolan-4-yl]-2-{[7-(trifluoro-methyl)-3,4-dihydroisoquinolin-2(1H)-yl]sulfonyl}ethyl)-N-hydroxyformamide], the pIC50 on gelatinase A (MMP-2) is 7.35; at human ADAM17 (TACE), 5.89.

As for `O=CN(O)[C@H](CS(=O)(=O)N1Cc2ccc(F)cc2C1)[C@H]1CCCO1` [Example 29, N-{(1S)-2-[(5-fluoro-1,3-dihydro-2H-isoindol-2-yl)-sulfonyl]-1-[(2R)-tetrahydrofuran-2-yl]ethyl}-N-hydroxyformamide], the pIC50 on gelatinase A (MMP-2) is 6.82; on human ADAM17 (TACE), 6.56.

Turning to `CCC#CCC(C)(C)C(CS(=O)(=O)N1CCc2cc(C(F)(F)F)ccc2C1)N(O)C=O` (stereo not drawn) [Example 30, N-[2,2-dimethyl-1-({[6-(trifluoromethyl)-3,4-dihydro-isoquinolin-2(1H)-yl]sulfonyl}methyl)hept-4-yn-1-yl]-N-hydroxyformamide], the results for the pIC50 on gelatinase A (MMP-2) and at human ADAM17 (TACE) were 6.06 and below 5.30, respectively.

For `CC(C)(Cc1ccccc1)C(CS(=O)(=O)N1CCc2cc(C(F)(F)F)ccc2C1)N(O)C=O` (stereo not drawn) [Example 31, N-[2,2-dimethyl-3-phenyl-1-({[6-(trifluoromethyl)-3,4-dihydroisoquinolin-2(1H)-yl]sulfonyl}methyl)propyl]-N-hydroxyformamide], the results for the pIC50 at gelatinase A (MMP-2) and on human ADAM17 (TACE) were 6.03 and below 5.30, respectively.

Take `O=CN(O)[C@@H](CS(=O)(=O)N1CCc2ccc(C(F)(F)F)cc2C1)[C@H]1CCCO1` [Example 32, N-hydroxy-N-((1R)-1-[(2R)-tetrahydrofuran-2-yl]-2-{[7-(trifluoromethyl)-3,4-dihydroisoquinolin-2(1H)-yl]sulfonyl}ethyl)formamide]: the pIC50 at gelatinase A (MMP-2) and on human ADAM17 (TACE) was below 5.30 throughout.

`COc1ccc2c(c1)CN(S(=O)(=O)CC(CCC1CCCO1)N(O)C=O)CC2` (stereo not drawn) [Example 33, N-hydroxy-N-[1-{[(7-methoxy-3,4-dihydroisoquinolin-2(1H)-yl)sulfonyl]methyl}-3-(tetrahydrofuran-2-yl)propyl]formamide]: the pIC50 was 6.82 on gelatinase A (MMP-2) and 6.37 on human ADAM17 (TACE).

Regarding `CCC(CC)C(CS(=O)(=O)N1CCc2cc(Cl)c(Cl)cc2C1)N(O)C=O` (stereo not drawn) [Example 34, N-(1-{[(6,7-dichloro-3,4-dihydroisoquinolin-2(1H)-yl)-sulfonyl]methyl}-2-ethylbutyl)-N-hydroxyformamide], the results for the pIC50 on gelatinase A (MMP-2) and on human ADAM17 (TACE) were 7.46 and 6.45, respectively.

Consider `CCC(CC)C(CS(=O)(=O)N1CCc2cc(C(C)C)ccc2C1)N(O)C=O` (stereo not drawn) [Example 35, N-(2-ethyl-1-{[(6-isopropyl-3,4-dihydroisoquinolin-2(1H)-yl)sulfonyl]methyl}butyl)-N-hydroxyformamide], for which the pIC50 at gelatinase A (MMP-2) is 7.21; at human ADAM17 (TACE), below 5.30.

As for `CCC(CC)C(CS(=O)(=O)N1CCc2ccc(Br)cc2C1)N(O)C=O` (stereo not drawn) [Example 36, N-(1-{[(7-bromo-3,4-dihydroisoquinolin-2(1H)-yl)sulfonyl]-methyl}-2-ethylbutyl)-N-hydroxyformamide], the pIC50 on gelatinase A (MMP-2) was 7.39; against human ADAM17 (TACE), 6.64.

For the compound `CCC(CC)C(CS(=O)(=O)N1CCc2cc(C(F)(F)F)ccc2C1)N(O)C=O` (stereo not drawn) [Example 37, N-[2-ethyl-1-({[6-(trifluoromethyl)-3,4-dihydroisoquinolin-2(1H)-yl]sulfonyl}methyl)butyl]-N-hydroxyformamide], the pIC50 was 7.46 at gelatinase A (MMP-2) and 5.96 on human ADAM17 (TACE).

As for `CCC(CC)C(CS(=O)(=O)N1CCc2ccc(OC)cc2C1)N(O)C=O` (stereo not drawn) [Example 38, N-(2-ethyl-1-{[(7-methoxy-3,4-dihydroisoquinolin-2(1H)-yl)sulfonyl]methyl}butyl)-N-hydroxyformamide], the figures for the pIC50 at gelatinase A (MMP-2) and on human ADAM17 (TACE) were 7.15 and 6.56, respectively.

On to `CC(C)C(CS(=O)(=O)N1CCc2cc(Cl)c(Cl)cc2C1)N(O)C=O` (stereo not drawn) [Example 39, N-(1-{[(6,7-dichloro-3,4-dihydroisoquinolin-2(1H)-yl)-sulfonyl]methyl}-2-methylpropyl)-N-hydroxyformamide], for which the pIC50 on gelatinase A (MMP-2) is 7.80; on human ADAM17 (TACE), 6.77.

As to `CCCOc1ccc2c(c1)CN(S(=O)(=O)CC(CC(C)(C)C)N(O)C=O)CC2` (stereo not drawn) [Example 40, N-(3,3-dimethyl-1-{[(7-propoxy-3,4-dihydroisoquinolin-2(1H)-yl)sulfonyl]methyl}butyl)-N-hydroxyformamide], the pIC50 is 7.11 at gelatinase A (MMP-2) and 5.95 on human ADAM17 (TACE).

Turning to `CC(C)(C)CC(CS(=O)(=O)N1CCc2ccc(Cl)cc2C1)N(O)C=O` (stereo not drawn) [Example 41, N-(1-{[(7-chloro-3,4-dihydroisoquinolin-2(1H)-yl)sulfonyl]-methyl}-3,3-dimethylbutyl)-N-hydroxyformamide], the pIC50 is 7.06 at gelatinase A (MMP-2) and 6.72 on human ADAM17 (TACE).

On to `CC(C)(C)CC(CS(=O)(=O)N1CCc2cc(Cl)c(Cl)cc2C1)N(O)C=O` (stereo not drawn) [Example 42, N-(1-{[(6,7-dichloro-3,4-dihydroisoquinolin-2(1H)-yl)-sulfonyl]methyl}-3,3-dimethylbutyl)-N-hydroxyformamide], for which the results for the pIC50 on gelatinase A (MMP-2) and against human ADAM17 (TACE) were 7.51 and 6.21, respectively.

On to `CC(C)(C)CC(CS(=O)(=O)N1CCc2cc(C(F)(F)F)ccc2C1)N(O)C=O` (stereo not drawn) [Example 43, N-[3,3-dimethyl-1-({[6-(trifluoromethyl)-3,4-dihydro-isoquinolin-2(1H)-yl]sulfonyl}methyl)butyl]-N-hydroxyformamide], for which the pIC50 on gelatinase A (MMP-2) was 7.68; at human ADAM17 (TACE) it was below 5.30.

In the case of `CC(C)c1ccc2c(c1)CCN(S(=O)(=O)C[C@H]([C@H]1CCCO1)N(O)C=O)C2` [Example 45, N-hydroxy-N-{(1S)-2-[(6-isopropyl-3,4-dihydroisoquinolin-2(1H)-yl)sulfonyl]-1-[(2R)-tetrahydrofuran-2-yl]ethyl}formamide], the pIC50 on gelatinase A (MMP-2) was 7.60; against human ADAM17 (TACE) it was 6.09.

For the compound `O=CN(O)C(CS(=O)(=O)N1CCc2cc(C(F)(F)F)ccc2C1)[C@H]1CCCO1` (stereo partly drawn) [Example 47, N-hydroxy-N-(1-[(2R)-tetrahydrofuran-2-yl]-2-{[6-(tri-fluoromethyl)-3,4-dihydroisoquinolin-2(1H)-yl]sulfonyl}ethyl)formamide], the pIC50 at gelatinase A (MMP-2) was 7.48; at human ADAM17 (TACE), 6.03.

Usually pIC50 stands for −log10 of the IC50, conventionally taken in molar units.
